Experimental data from patent US8454991B2, “Method and device for photodynamic therapy” (Quest Pharmatech Inc., priority 2006, dated 2013).

Experiments:
mouse skin = format: in vivo, Male Balb/c mice
Procedure: The feasibility of using these alternative light sources as over the counter devices for topical PDT application is tested using an in vivo hair removal assay to assess their ability to generate a hair removal effect on mouse skin using SL-017, a known photosensitizer. Mouse strain. Male Balb/c mice of approximately 6 to 8 weeks of age weighing 16 to 18 grams were obtained from Charles River animal facility. The animals were allowed a minimum of 1 week to acclimatize to the facility prior to treatment. In vivo hair removal assay. The animals were anesthetized with a 0.1 ml intra peritoneal injection of 12 mg/ml sodium pentobarbital in 0.9% Saline. An approximately 1.5×1.5 cm square area on the back of each animal was shaved and the area treated with a 2% SL-017 topical gel for 60 minutes. The excess gel was removed from the area and it was covered with a template with a 1 cm diameter opening. The open area was treated with either 15 or 30 J/cm^2 of light from a LED flashlight. […] The mice were monitored once weekly for the re-growth of hair in the treated area. For the white LED, the treatment time required for the 15 J/cm^2 dose group was 5 minutes and 45 sec. while for the 30 J/cm^2 dose group was 11 minutes and 30 seconds. For the red LED, the treatment time required for the 15 J/cm^2 dose group was 45 minutes, and for the 30 J/cm^2 dose group was 90 minutes.

EMT-6 tumor cells = experiment: In vitro clonogenic assay (PDT phototoxic effect); format: cell-based; details: 2 hours incubation; for inhibition at 5 µM: Mus musculus
Procedure: The feasibility of using these alternative light sources as over the counter devices for topical PDT application is tested using an in vitro clonogenic assay to assess their ability to generate a phototoxic effect with SL-017, a known photosensitizer.
In vitro clonogenic assay. EMT-6 tumor cells are grown in culture in RPMI 1640 and plated onto Petri dishes. The photosensitizer SL-017 is added at a fixed concentration of 5 μM to the dishes and allowed to incubate for 2 hours, and then removed. The dishes are irradiated using the different two LED light sources and the orange (rhodamine 6G) chemiluminescent light source at pre-determined light doses. The EMT-6 cells are then re-plated and allowed to grow, for 5 to 7 days The number of surviving colonies in the control and treated plates are counted visually and compared.

COc1c2c3c4c(c(NCCCN(C)C)c(=O)c5c(O)cc(OC)c(c6c(OC)cc(O)c(c1=O)c63)c54)C=C(C)C2C(C)=O (stereo not shown) [SL-017]
delay in hair re-growth (mouse skin; 2% SL-017 topical gel for 60 minutes, red LED light, 30 J/cm^2): 3 weeks
re-growth of hair in the treated area versus controls (mouse skin; 2% SL-017 topical gel for 60 minutes, white LED light, 15 J/cm^2): no differences in the re-growth of hair
delay in re-growth of hair (mouse skin; 2% SL-017 topical gel for 60 minutes, white LED light, 30 J/cm^2): < 1 week
skin reaction post treatment at the treated site (mouse skin; mouse, in vivo): erythema is observed
inhibition at 5 µM (EMT-6 tumor cells; EMT6, SL-017 5 μM, orange (rhodamine 6G) chemiluminescent light stick, 1 hour exposure): 31.3%
inhibition at 5 µM (EMT-6 tumor cells; EMT6, light or radiation study, 2 h, SL-017 5 μM, red LED light (3 W), 0.1 J/cm^2): 100%
inhibition at 5 µM (EMT-6 tumor cells; EMT6, light or radiation study, 2 h, SL-017 5 μM, red LED light (3 W), 0.25 J/cm^2): 100%
inhibition at 5 µM (EMT-6 tumor cells; EMT6, light or radiation study, 2 h, SL-017 5 μM, red LED light (3 W), 0.4 J/cm^2): 100%
inhibition at 5 µM (EMT-6 tumor cells; EMT6, light or radiation study, 2 h, SL-017 5 μM, white LED light (9 W), 0.5 J/cm^2): 98.6%
inhibition at 5 µM (EMT-6 tumor cells; EMT6, light or radiation study, 2 h, SL-017 5 μM, white LED light (9 W), 1.0 J/cm^2): 100%
inhibition at 5 µM (EMT-6 tumor cells; EMT6, light or radiation study, 2 h, SL-017 5 μM, white LED light (9 W), 2.0 J/cm^2): 100%
Number of Colonies (EMT-6 tumor cells; SL-017 5 μM, orange (rhodamine 6G) chemiluminescent light stick, 1 hour exposure): 86.3
Number of Colonies (EMT-6 tumor cells; SL-017 5 μM, orange (rhodamine 6G) chemiluminescent light stick, 2 hour exposure): 187.3
Number of Colonies (EMT-6 tumor cells; SL-017 5 μM, red LED light (3 W), 0.1 J/cm^2): 0
Number of Colonies (EMT-6 tumor cells; SL-017 5 μM, red LED light (3 W), 0.25 J/cm^2): 0
Number of Colonies (EMT-6 tumor cells; SL-017 5 μM, red LED light (3 W), 0.4 J/cm^2): 0
Number of Colonies (EMT-6 tumor cells; SL-017 5 μM, white LED light (9 W), 0.5 J/cm^2): 1.8
Number of Colonies (EMT-6 tumor cells; SL-017 5 μM, white LED light (9 W), 1.0 J/cm^2): 0
Number of Colonies (EMT-6 tumor cells; SL-017 5 μM, white LED light (9 W), 2.0 J/cm^2): 0
